Reference: paper PMC11475281, “A Novel Liver Cancer-Selective Histone Deacetylase Inhibitor Is Effective against Hepatocellular Carcinoma and Induces Durable Responses with Immunotherapy” (ACS Pharmacology & Translational Science, 2024)
pIC50: −log10 of the molar value.

Tests used:
healthy C57Bl/6 mice = experiment: Maximum tolerated dose determination; format: in vivo; conditions: 100 mg/kg i.p. daily for 6 days
Protocol: Based on the data from the aforementioned in vitro studies, we selected STR-V-53 as a candidate for further evaluation in xenograft and murine models of HCC. Before the efficacy studies, we first determined the plasma stability (murine and human) and maximum tolerated dose (MTD) of STR-V-53 in healthy C57Bl/6 mice. […]. For MTD determination, STR-V-53 was administered via i.p. injection using a formulation containing excipients found in FDA-approved drugs—dimethylacetamide (DMA)/Cremophor RH 40 (CRH)/Water (10%/20%/70%)—that we developed.[17] […]
(§1) Then cells were treated with another 500 µL of 100 ug/mL PI staining at room temperature for 30 min. The cell cycle was analyzed with BD FACS Aria Illu analyzer, and the data were […]
The stability of STR-V-53 in murine and human plasmas was determined through a contract agreement with Cyprotex, an Evotec Company (https://www.cyprotex.com) […]
days in Kolliphor/DMA/water vehicle. We measured body weight and monitored daily food consumption, overall health, and mortality. […]
C57Bl/6 mice, 6–8 weeks old, 3 males and 3 females per treatment group, were injected intraperitoneally with STR-V-53 at […] in Kolliphor/DMA/water vehicle. Eight hours after the injection, organs were harvested and frozen at −80 °C for subsequent quantification by LC-

cytochrome P450 = format: in vitro ADME; conditions: maximum tested concentration of 100 μM
hERG = hERG (Homo sapiens, UniProt Q12809); experiment: In vitro hERG inhibition assay; conditions: maximum tested concentration of 100 μM
hERG, sequence (Q12809 whole entry): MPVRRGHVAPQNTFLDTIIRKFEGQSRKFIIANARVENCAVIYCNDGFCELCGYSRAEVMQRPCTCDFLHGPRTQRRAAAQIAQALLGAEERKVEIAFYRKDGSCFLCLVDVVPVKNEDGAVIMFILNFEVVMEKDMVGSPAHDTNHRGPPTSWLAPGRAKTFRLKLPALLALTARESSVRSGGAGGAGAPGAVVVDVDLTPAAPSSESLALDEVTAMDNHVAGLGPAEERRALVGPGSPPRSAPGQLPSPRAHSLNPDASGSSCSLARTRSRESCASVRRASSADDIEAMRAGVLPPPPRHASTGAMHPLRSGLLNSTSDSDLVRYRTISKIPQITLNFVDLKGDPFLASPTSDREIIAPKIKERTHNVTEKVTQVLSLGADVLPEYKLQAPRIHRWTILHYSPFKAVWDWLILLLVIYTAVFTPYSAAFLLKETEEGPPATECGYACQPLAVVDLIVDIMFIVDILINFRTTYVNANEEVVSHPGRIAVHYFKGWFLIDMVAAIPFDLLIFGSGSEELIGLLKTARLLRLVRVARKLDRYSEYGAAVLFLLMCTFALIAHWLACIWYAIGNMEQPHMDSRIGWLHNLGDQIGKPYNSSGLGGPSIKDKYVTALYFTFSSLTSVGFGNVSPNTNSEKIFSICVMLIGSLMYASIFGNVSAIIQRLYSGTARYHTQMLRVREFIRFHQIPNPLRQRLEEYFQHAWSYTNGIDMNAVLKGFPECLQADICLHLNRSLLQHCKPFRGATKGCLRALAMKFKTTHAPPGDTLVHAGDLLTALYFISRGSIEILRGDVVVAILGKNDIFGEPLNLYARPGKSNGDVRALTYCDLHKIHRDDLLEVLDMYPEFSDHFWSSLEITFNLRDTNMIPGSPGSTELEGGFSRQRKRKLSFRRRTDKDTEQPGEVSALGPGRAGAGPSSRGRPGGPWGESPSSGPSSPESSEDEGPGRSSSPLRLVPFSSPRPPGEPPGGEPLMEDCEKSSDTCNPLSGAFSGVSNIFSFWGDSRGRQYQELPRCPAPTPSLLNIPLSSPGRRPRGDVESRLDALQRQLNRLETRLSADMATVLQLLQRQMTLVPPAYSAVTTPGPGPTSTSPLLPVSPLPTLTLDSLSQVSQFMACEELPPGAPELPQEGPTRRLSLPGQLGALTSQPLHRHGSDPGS

[1] = Tissue distribution by LC-MS; format: in vivo; conditions: both sexes, healthy mice, i.p. 25 mg/kg
Protocol: To determine if liver tissue accumulation plays a role in the observed in vivo efficacy of STR-V-53, we used LC-MS to evaluate the distribution of STR-V-53 in selected tissues (liver and lungs) and plasma. We analyzed samples from healthy mice exposed to STR-V-53 (i.p. injection) at 25 mg/kg for 8 h. […] The average level of STR-V-53 in circulation in the plasma of healthy mice was ∼ […] 8 h postinjection. In contrast, the level of STR-V-53 in the liver was approximately 4 times its plasma level (Figure 5d). […]
for another 48 h. Cells were washed with cold 1x PBS solution twice and trypsinized.
Subsequently, cells were collected using 5 mL 1x PBS buffer and fixed overnight at -20 °C using 70% ethanol. Cells were centrifuged in 1x PBS on day 2 at 4 °C with a spin speed of 3,000g, re-suspended in 1x PBS, and centrifuged again under the same condition. The supernatant was removed, and the cell pellets were re-suspended with 500 µL of 200 ug/mL RNase for 30 min.
as §1
The stability of STR-V-53 in murine and human plasmas was determined through a contract agreement with Cyprotex, an Evotec Company (https://www.cyprotex.com)
Maximum tolerated dose determination
C57BL/6 mice, 6–8 weeks old, 3 males and 3 females per treatment group, were injected […]
days in Kolliphor/DMA/water vehicle. We measured body weight and monitored daily food consumption, overall health, and mortality. On the eighth day, mice were sacrificed by cervical dislocation, and organs were harvested and frozen at −80 ◦C.
Tissue distribution studies
C57Bl/6 mice, 6–8 weeks old, 3 males and 3 females per treatment group, were injected […]
the injection, organs were harvested and frozen at −80 °C for subsequent quantification by LC-

Hep-G2 cells = experiment: RNA-seq differential gene expression vs DMSO control; format: cell-based, human
Protocol: To obtain transcriptome level evidence that may shed light on the HCC-selectivity and/or the enhanced potency of the combination of STR-V-53 with anti-PD-1 antibody, we performed RNA sequencing (RNA-seq) analysis on STR-V-53-treated Hep-G2 cells, incubated at IC50 and 2× IC50 for 24 h, relative to the untreated (DMSO) control. We first conducted gene set enrichment analysis (GSEA) using hallmark and gene ontology biological process (GOBP) gene sets to analyze the effect of STR-V-53 vs DMSO-treated control on the Hep-G2 transcriptome.[42],[43] […] Negative enrichment of the G2 M checkpoint pathway supports the finding that STR-V-53 induced S phase arrest in Hep-G2 cells (see Figure 4).
Subsequently, we focused our analysis on specific genes of interest, including gene signatures for HDAC inhibition and immune response pathways. […]
and allowed to grow for 48 hours.
RCF, with this washing step repeated twice. Next, using RNeasy Plus Mini Kit and Qiagen QIAcube […]
determined using a DeNovix spectrophotometer. Subsequently, quality control of the RNA samples was […]
(base call error rate of […]).
FASTQ files of samples were analyzed through the RNA-seq pipeline provided by the Gryder lab1. Reads were aligned to hg38 using STAR version 2.5.3a, and gene expression was calculated as Transcripts per Million mapped reads (TPM) using RSEM version 1.3.3 and filtered for coding genes. Differentially expressed genes lists were generated for each sample by calculating log2 fold change of the averaged sample TPM versus the averaged DMSO-treated control cells TPM and filtering for genes with |log2 fold change| > -1 and false discovery rate < 0.25. Hallmark2 and gene ontology biological processes (GOBP)3 gene set enrichment analysis (GSEA) was performed on the differentially expressed gene lists using the GSEA software (parameters: Run GSEAPreranked, Collapse/Remap- No_Collapse)4. GSEA results were interpreted and visualized using scripts provided by the Gryder lab1.Volcano plots were generated using DESeq2v1.41.1 and visualized with the ggplot2 R packages5,6. […]

HDAC5 = HDAC5 (Homo sapiens, UniProt Q9UQL6); experiment: HDAC isoform inhibition (BPS Bioscience)
HDAC5, sequence (Q9UQL6 whole entry, canonical isoform): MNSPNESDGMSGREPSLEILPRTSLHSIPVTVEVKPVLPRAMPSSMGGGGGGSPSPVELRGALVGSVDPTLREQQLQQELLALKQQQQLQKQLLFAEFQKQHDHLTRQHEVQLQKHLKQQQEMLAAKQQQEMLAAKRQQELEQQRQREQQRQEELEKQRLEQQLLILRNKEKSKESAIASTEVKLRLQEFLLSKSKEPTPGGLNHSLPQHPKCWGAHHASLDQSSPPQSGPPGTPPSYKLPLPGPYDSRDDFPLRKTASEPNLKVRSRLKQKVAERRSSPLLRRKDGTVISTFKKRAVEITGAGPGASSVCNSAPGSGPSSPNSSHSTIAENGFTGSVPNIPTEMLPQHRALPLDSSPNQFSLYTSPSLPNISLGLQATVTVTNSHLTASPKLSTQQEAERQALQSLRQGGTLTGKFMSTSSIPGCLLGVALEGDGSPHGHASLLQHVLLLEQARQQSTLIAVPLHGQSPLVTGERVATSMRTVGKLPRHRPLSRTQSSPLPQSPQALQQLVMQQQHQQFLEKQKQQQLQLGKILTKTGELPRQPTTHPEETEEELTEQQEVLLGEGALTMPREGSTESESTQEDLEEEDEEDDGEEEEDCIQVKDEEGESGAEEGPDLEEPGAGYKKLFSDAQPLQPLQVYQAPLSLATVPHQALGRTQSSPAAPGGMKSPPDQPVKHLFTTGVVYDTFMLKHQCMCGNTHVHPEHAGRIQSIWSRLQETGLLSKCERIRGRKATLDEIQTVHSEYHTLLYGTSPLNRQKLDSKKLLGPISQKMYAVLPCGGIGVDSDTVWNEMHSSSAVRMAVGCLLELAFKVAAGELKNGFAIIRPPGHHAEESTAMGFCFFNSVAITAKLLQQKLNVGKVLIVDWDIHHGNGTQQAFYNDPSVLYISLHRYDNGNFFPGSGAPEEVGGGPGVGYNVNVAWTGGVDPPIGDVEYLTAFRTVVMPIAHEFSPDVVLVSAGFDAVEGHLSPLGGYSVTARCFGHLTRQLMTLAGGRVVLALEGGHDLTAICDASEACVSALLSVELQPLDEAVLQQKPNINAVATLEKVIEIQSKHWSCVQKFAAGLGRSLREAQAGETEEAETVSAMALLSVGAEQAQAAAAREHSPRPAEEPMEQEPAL

HDAC10 = HDAC10 (Homo sapiens, UniProt Q969S8); experiment: HDAC isoform inhibition (BPS Bioscience)
HDAC10, sequence (Q969S8 whole entry, canonical isoform): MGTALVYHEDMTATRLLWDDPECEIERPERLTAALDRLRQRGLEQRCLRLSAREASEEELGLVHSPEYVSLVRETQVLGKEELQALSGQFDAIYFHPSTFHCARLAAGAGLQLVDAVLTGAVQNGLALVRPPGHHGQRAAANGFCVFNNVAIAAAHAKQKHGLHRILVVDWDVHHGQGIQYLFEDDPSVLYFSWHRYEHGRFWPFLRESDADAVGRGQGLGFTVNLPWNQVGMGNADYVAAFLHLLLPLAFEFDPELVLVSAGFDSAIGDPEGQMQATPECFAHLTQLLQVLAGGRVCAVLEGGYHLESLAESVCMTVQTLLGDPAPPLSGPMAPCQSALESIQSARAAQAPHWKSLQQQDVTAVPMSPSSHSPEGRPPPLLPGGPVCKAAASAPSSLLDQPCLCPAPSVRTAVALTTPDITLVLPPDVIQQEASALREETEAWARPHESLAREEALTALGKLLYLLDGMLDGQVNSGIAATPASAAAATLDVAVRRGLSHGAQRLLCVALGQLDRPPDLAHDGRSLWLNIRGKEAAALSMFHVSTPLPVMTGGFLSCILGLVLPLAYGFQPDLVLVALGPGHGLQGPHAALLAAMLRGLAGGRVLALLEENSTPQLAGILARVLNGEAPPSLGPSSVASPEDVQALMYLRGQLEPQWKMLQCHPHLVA

O=C(CCCCCCn1cc(-c2ccc(O[C@H]3O[C@H](CO)[C@@H](O)[C@H](O)[C@H]3O)cc2)nn1)NO [STR-V-53]
Body weight as an indicator of toxicity (healthy C57Bl/6 mice): no significant body weight loss | Cytochrome P450 inhibition (cytochrome P450): no inhibition | hERG inhibition (hERG): no inhibition | Kp at 8 h ([1]; C57Bl/6, mouse, liver (relative to plasma), ip, 8 h, read-out: Level in the liver relative to plasma level): ~4 | concentration at 8 h ([1]; C57Bl/6, mouse, plasma, ip, 8 h postinjection, read-out: Average level in plasma): ~0.01 ng/mL | Level in the lungs ([1]; 8 h): below the detection limit | ANP32B log2 fold change (Hep-G2 cells; 2× IC50 (20 μM), 24 h): −2.3 | CCL16 log2 fold change (Hep-G2 cells; 2× IC50 (20 μM), 24 h): −1.8 | CCL20 log2 fold change (Hep-G2 cells; 2× IC50 (20 μM), 24 h): 0.9 | CCL25 log2 fold change (Hep-G2 cells; 2× IC50 (20 μM), 24 h): 1.2 | CCL26 log2 fold change (Hep-G2 cells; 2× IC50 (20 μM), 24 h): 2.9 | CDKN1A (p21) log2 fold change (Hep-G2 cells; 2× IC50 (20 μM), 24 h): 3.3 | CX3CL1 log2 fold change (Hep-G2 cells; 2× IC50 (20 μM), 24 h): −1.7 | CXCL8 log2 fold change (Hep-G2 cells; 2× IC50 (20 μM), 24 h): −2.0 | CXCL11 log2 fold change (Hep-G2 cells; 2× IC50 (20 μM), 24 h): 1.3 | DKK-1 log2 fold change (Hep-G2 cells; 2× IC50 (20 μM), 24 h): 6.2 | MT1X log2 fold change (Hep-G2 cells; 2× IC50 (20 μM), 24 h): 3.4 | PDCD1 log2 fold change (Hep-G2 cells; 2× IC50 (20 μM), 24 h): 3.0 | TUBA1A log2 fold change (Hep-G2 cells; 2× IC50 (20 μM), 24 h): 5.4 | TYMS log2 fold change (Hep-G2 cells; 2× IC50 (20 μM), 24 h): −3.6 | Expression of MHC (HLA) complex, CD8+, and PD-1 (PDCD1) /PD-L1 (CD274) genes (Hep-G2 cells; Hep-G2, RNA-seq, 24 h): upregulates | Expression of GLUTs 1, 2, 9, and 14 (Hep-G2 cells; Hep-G2, within 24 h of uptake): downregulation | Expression of GLUTs 3, 4, 6, and 12 (Hep-G2 cells; Hep-G2, within 24 h of uptake): upregulation | ANP32B log2 fold change (Hep-G2 cells; IC50 (10 μM), 24 h): −1.8 | CCL16 log2 fold change (Hep-G2 cells; IC50 (10 μM), 24 h): −1.0 | CCL20 log2 fold change (Hep-G2 cells; IC50 (10 μM), 24 h): 1.9 | CCL25 log2 fold change (Hep-G2 cells; IC50 (10 μM), 24 h): 0.9 | CCL26 log2 fold change (Hep-G2 cells; IC50 (10 μM), 24 h): 2.1 | CDKN1A (p21) log2 fold change (Hep-G2 cells; IC50 (10 μM), 24 h): 3.1 | CX3CL1 log2 fold change (Hep-G2 cells; IC50 (10 μM), 24 h): −1.5 | CXCL8 log2 fold change (Hep-G2 cells; IC50 (10 μM), 24 h): −1.6 | CXCL11 log2 fold change (Hep-G2 cells; IC50 (10 μM), 24 h): 1.1 | DKK-1 log2 fold change (Hep-G2 cells; IC50 (10 μM), 24 h): 6.5 | MT1X log2 fold change (Hep-G2 cells; IC50 (10 μM), 24 h): 2.9 | PDCD1 log2 fold change (Hep-G2 cells; IC50 (10 μM), 24 h): 2.1 | TUBA1A log2 fold change (Hep-G2 cells; IC50 (10 μM), 24 h): 4.7 | TYMS log2 fold change (Hep-G2 cells; IC50 (10 μM), 24 h): −3.2 | pIC50 (HDAC5): 5.15 | pIC50 (HDAC10): 7.27
